The values below come from patent publication US7135462B2, “Hepatitis C virus inhibitors” (priority 2003, dated 2006).

Each structure is given as a SMILES string. Like-named read-outs stand apart in the source and are kept apart here.

The target of test [1] is T1, HCV NS3/4A protease complex (BMS strain) (UniProt P27958, C1454S/C1711G, species not given).
T1 construct: for H77 and J4L6S; fused on or other part: Three-lysine solubilising tail at the C-terminus of NS4A
In words: Recombinant HCV NS3/4A protease complex FRET peptide assay. The settings on record: NS3/4A BMS strain, activity range class. The format is biochemical, Hepatitis C virus (HCV), genotype 1a. The source says: Recombinant HCV NS3/4A Protease Complex FRET Peptide Assay
Serum from an HCV-infected patient was obtained from Dr. T. Wright, San Francisco Hospital. An engineered full-length cDNA (compliment deoxyribonucleic acid) template of the HCV genome (BMS strain) was constructed from DNA fragments obtained by reverse transcription-PCR (RT-PCR) of serum RNA (ribonucleic acid) and using primers selected on the basis of homology between other genotype 1a strains.
The H77 and J4L6S strains were used for production of recombinant NS3/4A protease complexes. […] Briefly, a three-lysine solubilizing tail was added at the 3′-end of the NS4A coding region. […] Briefly, the NS3/4A protease complex expression was induced with 0.5 millimolar (mM) Isopropyl β-D-1-thiogalactopyranoside (IPTG) for 22 hours (h) at 20° C. […] The cells were resuspended in lysis buffer (10 mL/g) consisting of 25 mM N-(2-Hydroxyethyl)piperazine-N′-(2-Ethane Sulfonic acid) (HEPES), pH 7.5, 20% glycerol, 500 mM Sodium Chloride (NaCl), 0.5% Triton X-100, 1 microgram/milliliter (“μg/mL”) lysozyme, 5 mM Magnesium Chloride (MgCl2), 1 μg/ml DnaseI, 5 mM β-Mercaptoethanol (βME), Protease inhibitor—Ethylenediamine Tetraacetic acid (EDTA) free (Roche), homogenized and incubated for 20 minutes (min) at 4° C. The homogenate was sonicated and clarified by ultra-centrifugation at 235000 g for 1 h at 4° C. Imidazole was added to the supernatant to a final concentration of 15 mM and the pH adjusted to 8.0. The crude protein extract was loaded on a Nickel—Nitrilotriacetic acid (Ni-NTA) column pre-equilibrated with buffer B (25 mM HEPES, pH 8.0, 20% glycerol, 500 mM NaCl, 0.5% Triton X-100, 15 mM imidazole, 5 mM βME). The sample was loaded at a flow rate of 1 mL/min. The column was washed with 15 column volumes of buffer C (same as buffer B except with 0.2% Triton X-100). The protein was eluted with 5 column volumes of buffer D (same as buffer C except with 200 mM Imidazole).
NS3/4A protease complex-containing fractions were pooled and loaded on a desalting column Superdex-S200 pre-equilibrated with buffer D (25 mM HEPES, pH 7.5, 20% glycerol, 300 mM NaCl, 0.2% Triton X-100, 10 mM βME). Sample was loaded at a flow rate of 1 mL/min. NS3/4A protease complex-containing fractions were pooled and concentrated to approximately 0.5 mg/ml.
The enzyme was stored at −80° C., thawed on ice and diluted prior to use in assay buffer. […] The sequence of this peptide is loosely based on the NS4A/NS4B natural cleavage site for the HCV NS3 protease except there is an ester linkage rather than an amide bond at the cleavage site. The peptide substrate was incubated with one of the three recombinant NS3/4A protease complexes, in the absence or presence of a compound of the present invention, and the formation of fluorescent reaction product was followed in real time using a Cytofluor Series 4000.
The reagents were as follow: HEPES and Glycerol (Ultrapure) were obtained from GIBCO-BRL. Dimethyl Sulfoxide (DMSO) was obtained from Sigma. β-Mercaptoethanol was obtained from Bio Rad.
Assay buffer: 50 mM HEPES, pH 7.5; 0.15 M NaCl; 0.1% Triton; 15% Glycerol; 10 mM βME. Substrate: 2 μM final concentration (from a 2 mM stock solution in DMSO stored at −20° C.). HCV NS3/4A protease type 1a (1b), 2–3 nM final concentration (from a 5 μM stock solution in 25 mM HEPES, pH 7.5, 20% glycerol, 300 mM NaCl, 0.2% Triton-X100, 10 mM βME).
The assay was performed in a 96-well polystyrene black plate from Falcon.

The test system of test [2] is HCV replicon in Huh7 cells. Kind of test: microbe, parasite or virus in culture. The settings on record: Hepatitis C virus, Huh-7, 96 h; Huh7 cells expressing HCV replicon, 4 days; activity range class. The format is cell-based, strain 1b. From the text: Generation of HCV Replicon
This system enabled us to evaluate the effects of our HCV Protease compounds on HCV RNA replication. Briefly, using the HCV strain 1b sequence described in the Lohmann paper (Assession number: AJ238799), an HCV cDNA was generated encoding the 5′ internal ribosome entry site (IRES), the neomycin resistance gene, the EMCV (encephalomyocarditis viurs)-IRES and the HCV nonstructural proteins, NS3-NS5B, and 3′ non-translated region (NTR). In vitro transcripts of the cDNA were transfected into the human hepatoma cell line, Huh7. […] Resulting cell lines were characterized for positive and negative strand RNA production and protein production over time.
Huh7 cells, constitutively expressing the HCV replicon, were grown in Dulbecco's Modified Eagle Media (DMEM) containing 10% Fetal calf serum (FCS) and 1 mg/ml G418 (Gibco-BRL). Cells were seeded the night before (1.5×10^4 cells/well) in 96-well tissue-culture sterile plates. Compound and no compound controls were prepared in DMEM containing 4% FCS, 1:100 Penicillin/Streptomysin, 1:100 L-glutamine and 5% DMSO in the dilution plate (0.5% DMSO final concentration in the assay). Compound/DMSO mixes were added to the cells and incubated for 4 days at 37° C. After 4 days, plates were rinsed thoroughly with Phosphate-Buffered Saline (PBS) (3 times 150 μl). The cells were lysed with 25 μl of a lysis assay reagent containing the FRET peptide (RET S1, as described for the in vitro enzyme assay). The lysis assay reagent was made from 5× cell Luciferase cell culture lysis reagent (Promega #E153A) diluted to 1× with distilled water, NaCl added to 150 mM final, the FRET peptide diluted to 10 μM final from a 2 mM stock in 100% DMSO. The plate was then placed into the Cytofluor 4000 instrument which had been set to 340 nm excitation/490 nm emission, automatic mode for 21 cycles and the plate read in a kinetic mode. EC50 determinations were carried out as described for the IC50 determinations. […]
The percentage inhibition was calculated using the formula below: […]
The values were graphed and analyzed using XLFit to obtain the EC50 value.

Turning to `C=C[C@@H]1C[C@]1(NC(=O)[C@@H]1C[C@@H](Oc2nccc3ccccc23)CN1C(=O)[C@@H](NC(=O)Oc1ccc(OC)cc1)C(C)(C)C)C(=O)NS(=O)(=O)C1(Cc2ccccc2)CC1` [Cmpd 203], the IC50 in test [1] (read-out: IC50) was in the range of 1 to 10 µM.

For `C=C[C@@H]1C[C@]1(NC(=O)[C@@H]1C[C@@H](Oc2nccc3ccccc23)CN1C(=O)[C@@H](NC(=O)O[C@@H]1C[C@H](C)CC[C@H]1C(C)C)C(C)(C)C)C(=O)NS(=O)(=O)C1(Cc2ccccc2)CC1` [Cmpd 209], in test [1] (read-out: IC50), the IC50 is 10 to 100 µM. Also, the EC50 in test [2] is 1 to 10 µM.

In the case of `C=C[C@@H]1C[C@]1(NC(=O)[C@@H]1C[C@@H](Oc2ncc(Cl)c3ccccc23)CN1C(=O)[C@@H](NC(=O)OC(C)(C)C)C(C)(C)C)C(=O)NS(=O)(=O)C1(CC)CC1` [Cpd 102], in test [1], the IC50 is less than 0.1 µM. In test [2], the EC50 was in the range of 0.1 to 1 µM.

With `C=C[C@@H]1C[C@]1(NC(=O)[C@@H]1C[C@@H](Oc2nccc3cc(OC)ccc23)CN1C(=O)[C@@H](NC(=O)NC(C)(C)CC)C(C)(C)C)C(=O)NS(=O)(=O)C1(C)CC1` [Cmpd 219], the IC50 in test [1] (read-out: IC50) is less than 0.1 µM. Besides, the EC50 in test [2] is less than 0.1 µM.

Take `C=C[C@@H]1C[C@]1(NC(=O)[C@@H]1C[C@@H](Oc2nc(-c3ccccc3)nc3ccccc23)CN1C(=O)[C@@H](N)C(C)(C)C)C(=O)NS(=O)(=O)C1(Cc2ccccc2)CC1` [Cmpd 603]: the IC50 in test [1] (read-out: IC50) is 1 to 10 µM.

As for `C=C[C@@H]1C[C@]1(NC(=O)[C@@H]1C[C@@H](Oc2nc(-c3ccccc3)nc3ccccc23)CN1C(=O)[C@@H](NC(=O)c1cnccn1)C(C)(C)C)C(=O)NS(=O)(=O)C1(CC2CC2)CC1` [Cmpd 605], the IC50 in test [1] (read-out: IC50) was 0.1 to 1 µM. Moreover, the EC50 in test [2] lay in the range of 1 to 10 µM.

Consider `CCCC1(S(=O)(=O)NC(=O)[C@@]2(NC(=O)[C@@H]3C[C@@H](Oc4cc(-c5ccccc5)nc5c(C)noc45)CN3C(=O)[C@@H](NC(=O)OC(C)(C)C)C(C)(C)C)C[C@H]2CC)CC1` [Cmpd 502], for which the IC50 in test [1] is 0.1 to 1 µM. The compound further came in with an EC50 in test [2] of 0.1 to 1 µM.

Regarding `C=C[C@@H]1C[C@]1(NC(=O)[C@@H]1C[C@@H](Oc2nccc3c(OC(F)(F)F)cccc23)CN1C(=O)[C@@H](NC(=O)OC(C)(C)C)C(C)(C)C)C(=O)NS(=O)(=O)C1(CC)CC1` [Cpd 103], in test [1] (read-out: IC50), the IC50 was less than 0.1 µM. Further, the EC50 in test [2] is 0.1 to 1 µM.

As for `C=C[C@@H]1C[C@]1(NC(=O)[C@@H]1C[C@@H](Oc2nccc3ccccc23)CN1C(=O)[C@@H](NC(=O)Oc1ccc(F)cc1)C(C)(C)C)C(=O)NS(=O)(=O)C1(Cc2ccccc2)CC1` [Cmpd 202], the IC50 in test [1] (read-out: IC50) is 1 to 10 µM.

Regarding `C=C[C@@H]1C[C@]1(NC(=O)[C@@H]1C[C@@H](Oc2nccc3ccccc23)CN1C(=O)[C@@H](NC(=O)CCOC)C(C)(C)C)C(=O)NS(=O)(=O)C1(Cc2ccccc2)CC1` [Cmpd 212], the IC50 in test [1] (read-out: IC50) lay in the range of 1 to 10 µM.

As to `C=C[C@@H]1C[C@]1(NC(=O)[C@@H]1C[C@@H](Oc2nccc3c4c(ccc23)OCCO4)CN1C(=O)[C@@H](NC(=O)OC(C)(C)C)C(C)(C)C)C(=O)NS(=O)(=O)C1(CC)CC1` [Cpd 108], the IC50 in test [1] (read-out: IC50) is less than 0.1 µM. In test [2], this compound had an EC50 of less than 0.1 µM.

Take `C=C[C@@H]1C[C@]1(NC(=O)[C@@H]1CC(Oc2ccnc(-c3cccs3)c2)CN1C(=O)[C@@H](NC(=O)OC1CCCC1)C(C)(C)C)C(=O)NS(=O)(=O)C1(Cc2ccccc2)CC1` (stereo partly shown) [Cmpd 701]: the IC50 in test [1] (read-out: IC50) was less than 0.1 µM. The compound also registered an EC50 in test [2] of 0.1 to 1 µM.

`C=C[C@@H]1C[C@]1(NC(=O)[C@@H]1C[C@@H](Oc2nccc3cc(OC)c(F)cc23)CN1C(=O)[C@@H](NC(=O)OC(C)(C)C)C(C)(C)C)C(=O)NS(=O)(=O)C1(CC)CC1` [Cpd 109]: in test [1] (read-out: IC50), the IC50 was less than 0.1 µM. The compound also showed an EC50 in test [2] of less than 0.1 µM.

Regarding `C=C[C@@H]1C[C@]1(NC(=O)[C@@H]1C[C@@H](Oc2nccc3ccccc23)CN1C(=O)[C@@H](NC(=O)Oc1ccccc1OC)C(C)(C)C)C(=O)NS(=O)(=O)C1(Cc2ccccc2)CC1` [Cmpd 207], in test [1] (read-out: IC50), the IC50 lay within 1 to 10 µM.

For `C=C[C@@H]1C[C@]1(NC(=O)[C@@H]1C[C@@H](Oc2nccc3ccccc23)CN1C(=O)[C@@H](NC(=O)OCCF)C(C)(C)C)C(=O)NS(=O)(=O)C1(Cc2ccccc2)CC1` [Cmpd 206], in test [1] (read-out: IC50), the IC50 was 0.1 to 1 µM.

Take `C=C[C@@H]1C[C@]1(NC(=O)[C@@H]1C[C@@H](Oc2nccc3ccccc23)CN1C(=O)[C@@H](NC(=O)COC)C(C)(C)C)C(=O)NS(=O)(=O)C1(Cc2ccccc2)CC1` [Cmpd 211]: the IC50 in test [1] (read-out: IC50) was 1 to 10 µM.

As for `C=C[C@@H]1C[C@]1(NC(=O)[C@@H]1C[C@@H](Oc2nccc3ccccc23)CN1C(=O)[C@@H](NC(=O)Oc1ccc(C)cc1)C(C)(C)C)C(=O)NS(=O)(=O)C1(Cc2ccccc2)CC1` [Cmpd 200], the IC50 in test [1] (read-out: IC50) was 1 to 10 µM.

As for `C=C[C@@H]1C[C@]1(NC(=O)[C@@H]1C[C@@H](Oc2nccc3ccccc23)CN1C(=O)[C@@H](NC(=O)Oc1ccccc1)C(C)(C)C)C(=O)NS(=O)(=O)C1(Cc2ccccc2)CC1` [Cmpd 201], in test [1] (read-out: IC50), the IC50 was 1 to 10 µM.

With `C=C[C@@H]1C[C@]1(NC(=O)[C@@H]1C[C@@H](Oc2nccc3ccccc23)CN1C(=O)[C@@H](NC(=O)[C@@H]1COc2ccccc2O1)C(C)(C)C)C(=O)NS(=O)(=O)C1(Cc2ccccc2)CC1` [Cmpd 213], in test [1] (read-out: IC50), the IC50 was 10 to 100 µM.

For the compound `C=C[C@@H]1C[C@]1(NC(=O)[C@@H]1C[C@@H](Oc2nccc3ccccc23)CN1C(=O)[C@@H](NC(=O)Oc1cccc(C(F)(F)F)c1)C(C)(C)C)C(=O)NS(=O)(=O)C1(Cc2ccccc2)CC1` [Cmpd 208], the IC50 in test [1] (read-out: IC50) was in the range of 1 to 10 µM.

Turning to `C=C[C@@H]1C[C@]1(NC(=O)[C@@H]1C[C@@H](Oc2nccc3ccccc23)CN1C(=O)[C@@H](NC(=O)OCCOC)C(C)(C)C)C(=O)NS(=O)(=O)C1(Cc2ccccc2)CC1` [Cmpd 204], in test [1] (read-out: IC50), the IC50 fell in the range of 1 to 10 µM.

Turning to `C=C[C@@H]1C[C@]1(NC(=O)[C@@H]1C[C@@H](Oc2nccc3ccccc23)CN1C(=O)[C@@H](NC(=O)CC(C)(C)C)C(C)(C)C)C(=O)NS(=O)(=O)C1(Cc2ccccc2)CC1` [Cmpd 210], the IC50 in test [1] (read-out: IC50) fell in the range of 1 to 10 µM.
